How the values were obtained:
hair follicles = type: in vivo; settings: backskin of topically treated telogen mice
Method: (§1) FIG. 1A: Mice were shaved at day 50 (Telogen) and topically treated with Phenformin (5 uM) every other day for 2-3 weeks. […] FIG. 1B: Quantification of changes to the hair cycle in treatment and control. Quantification performed across 13 vehicle and 9 Phenformin treated male mice. FIG. 1C: Changes to the thickness of the epidermis, dermis and hypodermis were assessed microscopically and quantified. […] Scale bars for D indicate 25 micrometers.
(§2) FIG. 3A: Mice were shaved at day 50 (Telogen) and topically treated with antimycin A or Rotenone every other day for 2-3 weeks. […] FIG. 3B: Quantification of changes to the hair cycle in treatment and control. Quantification was performed with 13 vehicle treated, 11 Rotenone treated, and 9 Antimycin A treated male animals. FIG. 3C: Changes to the thickness of the epidermis, dermis and hypodermis were assessed microscopically and quantified. FIG. 3D: Immunolocalization was performed to detect evidence of inflammation due to topical application of ETC inhibitors. Both vehicle and ETC inhibitor treated skin was immunostained for phosphor-EGFR ([…]), CD11b (marker of macrophages), and IL6 (Chemokine). Vehicle treated skin from a wounded animal with hyperplastic epidermis was used as a positive control for markers of inflammation. Scale bars indicate 50 micrometers.
These findings were also in stark contrast to previous studies showing that transgenic abrogation of the ETC led to hair follicle degeneration.

lactate [1] = type: in vivo, mice; settings: topical treatment for 48 hours or 10 days
Method: FIG. 2A: Mice were treated topically with the indicated ETC inhibitor for 48 hours. Total epidermis was isolated, lysed and subjected to LDH activity assay. Relative LDH activity is presented as the rate of activity over 30 min in two different animals. FIG. 2B: Mice were treated topically with ETC inhibitor for 48 hours (TOP) or 10 days (BOTTOM). Total epidermis was isolated, and metabolites were extracted and subjected to metabolomics. Heatmap indicates relative levels of metabolites related to glycolysis and the TCA cycle.
To determine the effect on cellular metabolism of ETC inhibition by Rotenone, Phenformin and Antimycin A, two measures of metabolic pathways were performed. First, LDH activity was quantified on cells isolated from the epidermis treated with ETC inhibitors for 48 hours (FIG. 2A). Next, metabolomics was employed on sorted HFSCs with and without treatment for either 48 hours or 10 days.

lactate [2] = type: in vivo; settings: aged mice, sorted HFSCs at the end of the hair cycle experiment
From the text: (§3) FIGS. 4A and 4B. Treatment with ETC inhibitors can accelerate the hair cycle in aged mice. FIG. 4A: Female mice were shaved at 17 months of age and then treated with vehicle or the indicated ETC inhibitor every other day for up to 30 days. Images taken over time indicate the ETC inhibition promotes a more complete re-growth of hair after shaving in aged mice. Quantification of phenotype emergence from two pairs of animals are presented on the right. Data shown are representative of three independent experiments with 10 mice each.
(§4) As mice age, the hair cycle is known to become protracted such that upon shaving, only portions of the backskin show regrowth of hair within a 1-2 months. Various batches of aged mice (at least 17 months) were treated for 30 days with ETC inhibitors to determine whether this metabolic manipulation could stimulate the hair cycle even in dormant follicles.

hair cycle [3] = type: in vivo; settings: aged mice (at least 17 months), topical every other day for 30 days
From the text: as §3, §4

[4] = test system: hair follicle stem cells (HFSCs); type: in vivo, mice; settings: topically treated skin, a week after treatment
hair cycle [5] = type: in vivo; settings: mice shaved at day 50 (Telogen); for pigmentation in response to treatment: topical every other day for 2-3 weeks
Method: as §1, §2
To determine whether manipulation of ETC activity could affect HFSC activation, various inhibitors of ETC components were topically applied to mice during a resting phase of the hair cycle. The topical formulation was prepared by suspending the active ingredient in PLO Ultramax Gel (lecithin organogel). At postnatal day 50, the hair follicle is in telogen, a resting phase where the stem cells of the follicle are quiescent until the start of the next hair cycle at day 70-80. Rotenone, Phenformin, and Antimycin A are established inhibitors of […], respectively. Animals were shaved at postnatal day 47 and treated with the indicated compounds or vehicle on the shaved area every 48 hours for the indicated duration. […]

Row | Compound | H and E staining / histological analysis of the hair cycle (hair follicles) | lactate levels and glycolytic intermediates (metabolomics) (lactate [1]) | lactate pool levels (metabolomics) (lactate [2]) | hair regrowth across the backskin after shaving (hair cycle [3]) | HFSC activation (Sox9 and Ki-67 immunohistochemistry) [4] | pigmentation and hair growth in response to treatment (hair cycle [5]; topical Phenformin 5 uM every other day for 2-3 weeks, at 10 and 16 days) | pigmentation in response to treatment (hair cycle [5])
1 | [H]/N=C(/N)N/C(=N/[H])NCCc1ccccc1 [Phenformin] | advancement of the hair cycle | increase in lactate levels as well as several other glycolytic intermediates | increase in lactate pool levels | more complete hair regrowth across the entire backskin | HFSCs became activated | new pigmentation and then hair growth | –
2 | C=C(C)[C@H]1Cc2c(ccc3c2O[C@@H]2COc4cc(OC)c(OC)cc4[C@@H]2C3=O)O1 [Rotenone] | advancement of the hair cycle | increase in lactate levels as well as several other glycolytic intermediates | increase in lactate pool levels | more complete hair regrowth across the entire backskin | HFSCs became activated | – | new pigmentation
3 | Antimycin A | advancement of the hair cycle | increase in lactate levels as well as several other glycolytic intermediates | increase in lactate pool levels | more complete hair regrowth across the entire backskin | HFSCs became activated | – | new pigmentation

Reference: patent publication US20200253917A1 (priority 2017, published 2020)
